Results: patent US9062037B2, “Tazarotene derivatives” (Stiefel Laboratories, Inc., priority 2009, dated 2015)
Like-named read-outs stand apart in the source and are kept apart here.

Assays:
[1] = Stability in rat plasma at room temperature; assay type: in vitro ADME
Method: (§1) Tazarotene, tazarotene sulfoxide and tazarotene benzoate were incubated at room temperature with human and rat plasma. The incubation was carried out in duplicate and samples were taken at specific time points for stability analyses (i) rat samples (0 hour, 2 hours and 4 hours) and (ii) human samples (0 hour, 2 hours, 4 hours and 8 hours). Samples were analyzed by LC-MS/MS.

[2] = HPLC analysis of mixtures of DUAC gel and TAZORAC cream (degradation of tazarotene in the presence of benzoyl peroxide); assay type: physicochemical; details: fresh samples
Method: DUAC® gel (1% clindamycin and 5% benzoyl peroxide marketed by Stiefel Laboratories, Inc.) and TAZORAC® cream (0.1% tazarotene marketed by Allergan, Inc.) have been successfully used to treat facial acne. However, these topical treatments are not approved for concomitant use. To study whether tazarotene is susceptible to oxidative decomposition by benzoyl peroxide, an in vitro laboratory study was conducted wherein a mixture of DUAC gel and TAZORAC cream was prepared.
Samples were prepared by taking equal portions of DUAC gel and TAZORAC cream and mixing them thoroughly at room temperature with a spatula in a suitable container to form a uniform mixture. The initial samples were analyzed immediately by HPLC. The other samples were placed into an oven at 35° C. and removed for analysis after one, two, four, six and eight hours. An allowance was made for product evaporation over the course of the study.

[3] = tested on: Reconstructed human epidermis (RHE) tissues; experiment: RT-qPCR gene expression of K10, K19, filaggrin, K4 and K13 in reconstructed human epidermis (RHE) cultures; assay type: cell-based; details: 72 h, 2.83 mM in OD/10% DMSO, 6 μl
Method: Reconstructed human epidermis (RHE) tissues were cultured in-house as previously described by Poumay et al. Briefly, polycarbonate culture inserts (12 mm diameter and 0.4 μm pore size, Millipore) were filled with 150 μL of a suspension containing approximately 5×10^5 primary adult human keratinocytes. The inserts received another 500 μL of keratinocyte culture media and were placed in a 6-well plate (1 insert/well) containing 2.5 mL of RHE Growth Media (Epilife media +1.5 mM CaCl2). RHE cultures were incubated at 37° C. in a humidified atmosphere containing 5% CO2, for 24 hours. Subsequently (on Day 0), RHE cultures were exposed to the air-liquid interface by removing the RHE Growth Media from the top of the cultures, and replacing with 1.5 mL/well of RHE Growth Media containing 50 μg/mL vitamin C. Media was changed every other day until the cultures were dosed with Test Articles. A stock solution of 0.1% tazarotene (2.83 mM at 99.5% purity) in OD/10% DMSO was prepared. For tazarotene benzoate, hydroxytazarotenic acid, keto tazarotenic acid, keto tazarotene, and tazarotene nicotinate, a 10 mg/mL stock solution (in DMSO) was already prepared. From this stock solution, a 2.83 mM working solution (in octyldodecanol) was prepared. All other tested compounds were resuspended in DMSO and OD to obtain a final concentration of 2.83 mM in OD/10% DMSO. On Day 12, the cultures were placed in 60 mm petri dishes containing 3 mL of RHE Growth Media (+VitC). Test articles (6 μl) were applied to triplicate cultures and cultures were incubated at 37° C. for 72 hours. Untreated and OD alone served as negative controls. At the end of the incubation period, the growth media was collected and stored at −20° C. The tissues were cut in half: one half was placed in 10% NBF for histology, and the other half was placed in RNAlater™ solution for RT-qPCR. RNA was isolated and concentrations were determined using a NanoDrop spectrophotometer. In addition to using the same amount of RNA for each sample, data was normalized to internal GAPDH mRNA levels and is expressed as relative quantification (RQ) to untreated controls. RNA extracts from each replicate were amplified using RT-qPCR. The relative gene expression of five biomarkers was determined: Keratin 10, Keratin 19, Filaggrin, Keratin 4, and Keratin 13.

in vitro = details: human, liver microsomes, pH 7.4, Half-life, HLM
Method: (§2) Hepatic microsomal reactions were carried out in microcentrifuge tubes in the following manner. Human liver microsomes (0.5 or 1.0 mg/ml protein), Test Article (1 or 10 μM), paraoxon (0, 10 or 100 μM), NADPH regenerating system (10 mM glucose-6-phosphate, 1 unit/ml glucose-6-phosphate dehydrogenase, 1 mM NADP^+), magnesium chloride (5 mM) in 0.1 M potassium phosphate buffer, pH 7.4 were incubated at 37° C. in a shaking water bath. Reactions were initiated with the addition of substrate with the exception of the zero-time incubations. The total reaction volume was 0.2 ml. The reactions were incubated for 15, 30, 45 or 60 minutes, terminated with 0.2 ml ice-cold acetonitrile and then placed on ice. For zero-time incubations, ice cold acetonitrile was added to the mixture containing microsomes, along with NADPH regenerating system, magnesium chloride in phosphate buffer and the Test Article. Each time point was carried out in triplicate.
(§3) Disappearance of Test Article and formation of metabolites following in vitro metabolism were determined by LC-MS/MS using multiple reaction monitoring. LightSight® software (Applied Biosystems, Foster City, Calif.) was used to generate the mass spectrometry methods and carry out the data mining.
(§4) Control incubations were carried out with the identical incubation procedures as described above with the following exceptions. In negative control reactions, microsomes were not included. […] Duplicate reactions with an initial concentration of 10 μM were incubated for 0 or 30 minutes. Microsomal metabolic stability of 7-ethoxycoumarin was determined by LC-MS/MS.

[4] = Stability in human plasma at room temperature; assay type: in vitro ADME
Method: as §1

[5] = for k constant: HLM
Method: as §2, §3, §4

[6] = In vitro application of DUAC gel/TAZORAC cream mixture to split-thickness human skin; tazarotene and degradants quantified by LC/MS/MS; assay type: in vitro ADME; details: for detected in the receiving medium (passing through the skin): DUAC/TAZORAC mixture applied to split-thickness human skin
Method: An in vitro study was conducted to assess the formation of tazarotene degradants following the application of a mixture of DUAC gel and TAZORAC cream to human skin.
Equal portions of DUAC gel and TAZORAC cream were dispensed into a glass vial and mixed for approximately three minutes with a metal spatula to ensure a homogenous mixture. Samples of European DUAC gel and US DUAC gel were used in separate experiments. […] The test mixtures were then applied to the surface of split-thickness skin (˜0.25 mm) at a dose of 15.6 mg/cm^2 and spread evenly using a positive displacement pipette.
After 2 and 6 hours, the skin samples were washed, tape stripped twice, and then the epidermis was peeled from the dermis using a heat block. The skin samples were then extracted with acetonitrile overnight at 4° C. The distribution of tazarotene and its degradants within the epidermis, dermis and surface wash were quantified by LC/MS/MS with a 50 pg/mL LOQ. The experiments were performed under yellow light conditions. For the purposes of comparison, mixtures of DUAC gel and TAZORAC cream were also prepared and retained for stability testing at 0, 2 and 6 hour time points.

[7] = read-out: K4 Fold Change vs Untreated/OD controls (upregulation)
[8] = read-out: K13 Fold Change vs Untreated/OD controls (upregulation)
[9] = read-out: K19 Fold Change vs Untreated/OD controls (upregulation)
[10] = 1 μM initial concentration, Complete (with NADPH), 0 min
[11] = 1 μM initial concentration, Complete (with NADPH), 15 min
[12] = 1 μM initial concentration, Complete (with NADPH), 30 min
[13] = 1 μM initial concentration, Complete (with NADPH), 45 min
[14] = 1 μM initial concentration, Complete (with NADPH), 60 min
[15] = 1 μM initial concentration, Without NADPH, 0 min
[16] = 1 μM initial concentration, Without NADPH, 15 min
[17] = 1 μM initial concentration, Without NADPH, 30 min
[18] = 1 μM initial concentration, Without NADPH, 45 min
[19] = 1 μM initial concentration, Without NADPH, 60 min
[20] = 10 μM initial concentration, Complete (with NADPH), 0 min
[21] = 10 μM initial concentration, Complete (with NADPH), 15 min
[22] = 10 μM initial concentration, Complete (with NADPH), 30 min
[23] = 10 μM initial concentration, Complete (with NADPH), 45 min
[24] = 10 μM initial concentration, Complete (with NADPH), 60 min
[25] = 10 μM initial concentration, Without NADPH, 0 min
[26] = 10 μM initial concentration, Without NADPH, 15 min
[27] = 10 μM initial concentration, Without NADPH, 30 min
[28] = 10 μM initial concentration, Without NADPH, 45 min
[29] = 10 μM initial concentration, Without NADPH, 60 min

With `CCOC(=O)c1ccc(C#Cc2ccc3c(c2)C(C)(C)CC(OC(=O)c2ccccc2)S3)nc1` (stereo not shown) [Compound 4, 6-(2-(2-benzoyloxy-4,4-dimethylthiochroman-6-yl)ethynyl)nicotinic acid, ethyl ester] the “concentration in rat plasma” value ([1]; 0 hour) was 59.8 ng/mL, the “concentration in rat plasma” value ([1]; 2 hours) was 15.0 ng/mL and the “concentration in rat plasma” value ([1]; 4 hours) was 2.29 ng/mL. For the same molecule, the “% Label Tazarotene Benzoate” value ([2]; 35° C., 4 hours) was about 6.3 % Label, the fold induction at 2830 µM [3, 7] was 29 and the fold induction at 2830 µM [3, 8] was 7. It also gave a fold induction at 2830 µM [3, 9] of 8, a half-life at 1 µM (in vitro; Complete) of 7.76 min and a half-life at 1 µM (in vitro; Without NADPH) of 7.19 min. For the same molecule, the half-life at 10 µM (in vitro; Complete) was 71.4 min, the half-life at 10 µM (in vitro; Without NADPH) was 47.5 min and the “concentration in human plasma” value ([4]; 0 hour) was 52.0 ng/mL. The “concentration in human plasma” value ([4]; 2 hours) was 52.0 ng/mL, the “concentration in human plasma” value ([4]; 4 hours) was 50.0 ng/mL and the “concentration in human plasma” value ([4]; 8 hours) was 45.8 ng/mL. For the same molecule, the “Test Article remaining, percent of initial concentration” value (shortened to “Test Article remaining, percent”) [5, 10] was 100%, the “Test Article remaining, percent” value [5, 11] was 20.3% and the “Test Article remaining, percent” value [5, 12] was 4.45%. The “Test Article remaining, percent” value [5, 13] was 1.47%, the “Test Article remaining, percent” value [5, 14] was 0.73% and the “Test Article remaining, percent” value [5, 15] was 100%. The “Test Article remaining, percent” value [5, 16] was 17.3%, the “Test Article remaining, percent” value [5, 17] was 2.97% and the “Test Article remaining, percent” value [5, 18] was 1.07%. For the same molecule, the “Test Article remaining, percent” value [5, 19] was 0.53%, the “Test Article remaining, percent” value [5, 20] was 100% and the “Test Article remaining, percent” value [5, 21] was 99.3%. For the same molecule, the “Test Article remaining, percent” value [5, 22] was 73.4%, the “Test Article remaining, percent” value [5, 23] was 63.2% and the “Test Article remaining, percent” value [5, 24] was 55.2%. For the same molecule, the “Test Article remaining, percent” value [5, 25] was 100%, the “Test Article remaining, percent” value [5, 26] was 87.0% and the “Test Article remaining, percent” value [5, 27] was 64.0%. For the same molecule, the “Test Article remaining, percent” value [5, 28] was 51.0%, the “Test Article remaining, percent” value [5, 29] was 41.0% and the k constant ([5]; 1 μM, Complete) was −0.0893. It also gave a k constant ([5]; 1 μM, Without NADPH) of −0.0964, a k constant ([5]; 10 μM, Complete) of −0.0097 and a k constant ([5]; 10 μM, Without NADPH) of −0.0146. For the same molecule, the “detectable in epidermis and dermis samples” value ([6]; 2 and 6 hours post-application, all samples including the placebo) was “detectable in all samples”, the “detected in the receiving medium (passing through the skin)” value [6] was “could not be detected” and the “quantity in stability samples at the 6 hour time point relative to the 2 hour time point” value ([6]; mixture of DUAC gel and TAZORAC cream retained for stability testing) was “significant increase”.
For `CCOC(=O)c1ccc(C#Cc2ccc3c(c2)C(C)(C)CCS3)nc1` [Tazarotene, ethyl 6-[2-(4,4-dimethylthiochroman-6-yl)-ethynyl nicotinate], the “concentration in rat plasma” value ([1]; 0 hour) was 16.4 ng/mL, the “concentration in rat plasma” value ([1]; 2 hours) was “<LOD” and the “concentration in rat plasma” value ([1]; 4 hours) was “<LOD”. The tazarotene lost ([2]; mixture of DUAC gel and TAZORAC cream, after four hours) was “approximately 22%”, the fold induction at 2830 µM [3, 7] was 103 to 180 and the fold induction at 2830 µM [3, 8] was 12. For the same molecule, the fold induction at 2830 µM [3, 9] was 33 to 43, the half-life at 1 µM (in vitro; Complete) was 7.88 min and the half-life at 1 µM (in vitro; Without NADPH) was 7.71 min. For the same molecule, the half-life at 10 µM (in vitro; Complete) was 8.38 min, the half-life at 10 µM (in vitro; Without NADPH) was 7.58 min and the “concentration in human plasma” value ([4]; 0 hour) was 17.1 ng/mL. The “concentration in human plasma” value ([4]; 2 hours) was 17.1 ng/mL, the “concentration in human plasma” value ([4]; 4 hours) was 16.6 ng/mL and the “concentration in human plasma” value ([4]; 8 hours) was 17.5 ng/mL. For the same molecule, the “Test Article remaining, percent” value [5, 10] was 100%, the “Test Article remaining, percent” value [5, 11] was 21.1% and the “Test Article remaining, percent” value [5, 12] was 4.91%. For the same molecule, the “Test Article remaining, percent” value [5, 13] was 1.80%, the “Test Article remaining, percent” value [5, 14] was 0.70% and the “Test Article remaining, percent” value [5, 15] was 100%. The “Test Article remaining, percent” value [5, 16] was 22.0%, the “Test Article remaining, percent” value [5, 17] was 4.86% and the “Test Article remaining, percent” value [5, 18] was 1.43%. For the same molecule, the “Test Article remaining, percent” value [5, 19] was 0.65%, the “Test Article remaining, percent” value [5, 20] was 100% and the “Test Article remaining, percent” value [5, 21] was 24.1%. For the same molecule, the “Test Article remaining, percent” value [5, 22] was 6.55%, the “Test Article remaining, percent” value [5, 23] was 2.18% and the “Test Article remaining, percent” value [5, 24] was 0.89%. For the same molecule, the “Test Article remaining, percent” value [5, 25] was 100%, the “Test Article remaining, percent” value [5, 26] was 21.9% and the “Test Article remaining, percent” value [5, 27] was 4.64%. For the same molecule, the “Test Article remaining, percent” value [5, 28] was 1.48%, the “Test Article remaining, percent” value [5, 29] was 0.55% and the k constant ([5]; 1 μM, Complete) was −0.0880. It also gave a k constant ([5]; 1 μM, Without NADPH) of −0.0899, a k constant ([5]; 10 μM, Complete) of −0.0827 and a k constant ([5]; 10 μM, Without NADPH) of −0.0914. For the same molecule, the “detected in the receiving medium (passing through the skin)” value [6] was “could not be detected”.
